PubChem BioAssay AID1845215 (Molecular Pharmacology Branch, DTP, NCI, 2023)

Tested on: SW 1271 complex tumor spheroid viability
Test: Anticancer human tumor SW 1271 cell line growth inhibition;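 further: spheroids exposed to agents for seven days before readout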;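 on viability, T/C: percent of DMSO vehicle control luminescence so 100% = vehicle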
Conditions: for IC50: curve of first compound; for viability, T/C: stronger effect = lower value; active means viability on the fitted dose curve at most 10% of control; inactive means the rest
Summary of the method: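 Complex spheroids of malignant cells with endothelial cells and mesenchymal stem cells; agents alone or combined, from near clinical Cmax (or 10 microM if unknown) down in half-log steps, 0.25% DMSO final.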

[1] = second compound 1 µM, first compound 0.0949 µM
[2] = second compound 1 µM, first compound 0.3 µM
[3] = second compound 1 µM, first compound 0.949 µM
[4] = second compound 1 µM, first compound 3 µM
[5] = second compound 3.16 µM, first compound 0.0949 µM
[6] = second compound 3.16 µM, first compound 0.3 µM
[7] = second compound 3.16 µM, first compound 0.949 µM
[8] = second compound 3.16 µM, first compound 3 µM
[9] = second compound 10 µM, first compound 0.0949 µM
[10] = second compound 10 µM, first compound 0.3 µM
[11] = second compound 10 µM, first compound 0.949 µM
[12] = second compound 10 µM, first compound 3 µM
[13] = second compound 31.6 µM, first compound 0.0949 µM
[14] = second compound 31.6 µM, first compound 0.3 µM
[15] = second compound 31.6 µM, first compound 0.949 µM
[16] = second compound 31.6 µM, first compound 3 µM
[17] = second compound 100 µM, first compound 0.0949 µM
[18] = second compound 100 µM, first compound 0.3 µM
[19] = second compound 100 µM, first compound 0.949 µM
[20] = second compound 100 µM, first compound 3 µM

Cn1ncnc1[C@H]1c2n[nH]c(=O)c3cc(F)cc(c23)N[C@@H]1c1ccc(F)cc1 + Cn1nnc2c(C(N)=O)ncn2c1=O
< 9.49 nM: IC50 (second compound 3.16 µM) | IC50 (second compound 10 µM) | IC50 (second compound 31.6 µM) | IC50 (second compound 100 µM)
inactive: viability, T/C (second compound 1 µM, first compound 0.00949 µM) 50.5% | viability, T/C (second compound 1 µM, first compound 0.03 µM) 28.1% | viability, T/C [1] 23.4% | viability, T/C [2] 26.2% | viability, T/C [3] 25.8% | viability, T/C [4] 20.7% | viability, T/C (second compound 3.16 µM, first compound 0.00949 µM) 41.6% | viability, T/C (second compound 3.16 µM, first compound 0.03 µM) 25.2% | viability, T/C [5] 29.2% | viability, T/C [6] 22.1% | viability, T/C [7] 28.2% | viability, T/C [8] 22% | viability, T/C (second compound 10 µM, first compound 0.00949 µM) 32.9% | viability, T/C (second compound 10 µM, first compound 0.03 µM) 25.5% | viability, T/C [9] 25.6% | viability, T/C [10] 28.6% | viability, T/C [11] 29.5% | viability, T/C [12] 20.1% | viability, T/C (second compound 31.6 µM, first compound 0.00949 µM) 27.1% | viability, T/C (second compound 31.6 µM, first compound 0.03 µM) 27.1% | viability, T/C [13] 29.3% | viability, T/C [14] 28.5% | viability, T/C [15] 30.5% | viability, T/C [16] 22% | viability, T/C (second compound 100 µM, first compound 0.00949 µM) 29.8% | viability, T/C (second compound 100 µM, first compound 0.03 µM) 29.9% | viability, T/C [17] 32.1% | viability, T/C [18] 32.8% | viability, T/C [19] 28.7% | viability, T/C [20] 19.9%
9.72 nM: IC50 (second compound 1 µM)

O=C(c1cc(Cc2n[nH]c(=O)c3ccccc23)ccc1F)N1CCN(C(=O)C2CC2)CC1 + Cn1nnc2c(C(N)=O)ncn2c1=O
443 nM: IC50 (second compound 31.6 µM)
2200 nM: IC50 (second compound 1 µM)
inactive: viability, T/C [1] 95.3% | viability, T/C [2] 78.7% | viability, T/C [3] 69.1% | viability, T/C [4] 45.7% | viability, T/C (second compound 1 µM, first compound 9.49 µM) 24.4% | viability, T/C (second compound 1 µM, first compound 30 µM) 32.5% | viability, T/C [5] 86.3% | viability, T/C [6] 82.2% | viability, T/C [7] 70.7% | viability, T/C [8] 41% | viability, T/C (second compound 3.16 µM, first compound 9.49 µM) 33% | viability, T/C (second compound 3.16 µM, first compound 30 µM) 34.4% | viability, T/C [9] 95.6% | viability, T/C [10] 86.2% | viability, T/C [11] 63.2% | viability, T/C [12] 34.5% | viability, T/C (second compound 10 µM, first compound 9.49 µM) 34.4% | viability, T/C (second compound 10 µM, first compound 30 µM) 27% | viability, T/C [13] 82.5% | viability, T/C [14] 58.1% | viability, T/C [15] 33.9% | viability, T/C [16] 33.1% | viability, T/C (second compound 31.6 µM, first compound 9.49 µM) 33.5% | viability, T/C (second compound 31.6 µM, first compound 30 µM) 27.6% | viability, T/C [17] 35.1% | viability, T/C [18] 26.4% | viability, T/C [19] 29% | viability, T/C [20] 32.2% | viability, T/C (second compound 100 µM, first compound 9.49 µM) 28.8% | viability, T/C (second compound 100 µM, first compound 30 µM) 28.2%
< 94.9 nM: IC50 (second compound 100 µM)
1640 nM: IC50 (second compound 10 µM)
2110 nM: IC50 (second compound 3.16 µM)

[2H]c1nc(C)nc([2H])c1-c1cc(NC[C@@H](C)c2cccc3c(C(=O)NC)ccnc23)ncn1 + Cn1nnc2c(C(N)=O)ncn2c1=O
> 10000 nM: IC50 (second compound 1 µM) | IC50 (second compound 3.16 µM) | IC50 (second compound 10 µM) | IC50 (second compound 31.6 µM) | IC50 (second compound 100 µM)
inactive: viability, T/C (second compound 1 µM, first compound 0.0316 µM) 91.1% | viability, T/C (second compound 1 µM, first compound 0.1 µM) 101% | viability, T/C (second compound 1 µM, first compound 0.316 µM) 95.1% | viability, T/C (second compound 1 µM, first compound 1 µM) 96.7% | viability, T/C (second compound 1 µM, first compound 3.16 µM) 98.9% | viability, T/C (second compound 1 µM, first compound 10 µM) 78.5% | viability, T/C (second compound 3.16 µM, first compound 0.0316 µM) 104% | viability, T/C (second compound 3.16 µM, first compound 0.1 µM) 103% | viability, T/C (second compound 3.16 µM, first compound 0.316 µM) 103% | viability, T/C (second compound 3.16 µM, first compound 1 µM) 98.9% | viability, T/C (second compound 3.16 µM, first compound 3.16 µM) 96.8% | viability, T/C (second compound 3.16 µM, first compound 10 µM) 84.8% | viability, T/C (second compound 10 µM, first compound 0.0316 µM) 101% | viability, T/C (second compound 10 µM, first compound 0.1 µM) 103% | viability, T/C (second compound 10 µM, first compound 0.316 µM) 92.4% | viability, T/C (second compound 10 µM, first compound 1 µM) 88.3% | viability, T/C (second compound 10 µM, first compound 3.16 µM) 87.2% | viability, T/C (second compound 10 µM, first compound 10 µM) 81.1% | viability, T/C (second compound 31.6 µM, first compound 0.0316 µM) 110% | viability, T/C (second compound 31.6 µM, first compound 0.1 µM) 99.3% | viability, T/C (second compound 31.6 µM, first compound 0.316 µM) 100% | viability, T/C (second compound 31.6 µM, first compound 1 µM) 98.7% | viability, T/C (second compound 31.6 µM, first compound 3.16 µM) 98.3% | viability, T/C (second compound 31.6 µM, first compound 10 µM) 80.3% | viability, T/C (second compound 100 µM, first compound 0.0316 µM) 93.1% | viability, T/C (second compound 100 µM, first compound 0.1 µM) 90.2% | viability, T/C (second compound 100 µM, first compound 0.316 µM) 86% | viability, T/C (second compound 100 µM, first compound 1 µM) 77.8% | viability, T/C (second compound 100 µM, first compound 3.16 µM) 73.8% | viability, T/C (second compound 100 µM, first compound 10 µM) 64.7%
